Assay results taken from patent US20230081321A1, “CARBONIC ANHYDRASE II COMPOSITIONS AND METHODS OF USE THEREOF” (University of Florida Research Foundation, Incorporated, priority 2020, published 2023).
“Also recorded” adds a separate entry of the source.

How the values were obtained:
[1] = cited from earlier work
CAII [2] = molecular target: T1, CAII (Homo sapiens, UniProt P00918); assay: CAII esterase inhibition assay with 4-nitrophenyl acetate (pNPA) as colorimetric substrate; details: at physiologically relevant concentrations
mouse hearts = assay: Oxygen consumption by Langendorff-perfused mouse hearts; details: 1 mM inhibitor, ex vivo Langendorff perfusion, C57BL6 mouse hearts, O2 in minus O2 out vs control solution
Description: To test the effects of carbonic anhydrase inhibitors on oxygen consumption, Langendorff perfusion experiments were conducted using mouse hearts. Hearts were isolated from ˜12-week-old C57BL6 male mice and perfused ex vivo in Langendorff mode (retrograde perfusion via the aorta) with perfusate containing Krebs-Henseleit electrolytes with 2 mM acetate. The perfusate was constantly oxygenated with an oxygenator. […] The inhibitor solution was oxygenated by bubbling with 95% O2/5% CO2 mixed gas prior to adding.
Dissolved oxygen concentration was measured in the perfusate, or in the carbonic anhydrase inhibitor solution, using an Oxygraph+ system. […] In each figure, “O2 in” refers to the oxygen concentration in the perfusate prior to entering the heart or in the carbonic anhydrase inhibitor solution, and “O2 out” refers to the oxygen concentration in the perfusate after it passes through the heart.
Oxygen consumption was measured as the difference between the O2 in measurements and the O2 out measurements, and results are shown in FIG. 32.

CAII [3] = molecular target: T1, CAII; details: CAII binding; cited from earlier work

CC(=O)Oc1ccccc1C(=O)O [Aspirin, Acetylsalicylic acid]
half-life in blood [1]: ~15 min

O=C(O)c1ccccc1O [SA, salicylic acid]
inhibition of CAII (CAII [2]): completely inhibited CAII

CC(=O)Nc1nnc(S(N)(=O)=O)s1 [acetazolamide]
oxygen consumption by the heart (mouse hearts): increase in oxygen consumption; also recorded: increased oxygen consumption

[Cu] [copper]
specificity toward copper over zinc (CAII [3]): 50 fold

CCN[C@H]1C[C@H](C)S(=O)(=O)c2sc(S(N)(=O)=O)cc21 [dorzolamide]
oxygen consumption by the heart (mouse hearts): increase in oxygen consumption; also recorded: increased oxygen consumption
